Experimental data taken from patent US10774124B2, “Protease resistant mutants of stromal cell derived factor-1 in the repair of tissue damage” (THE BRIGHAM AND WOMEN'S HOSPITAL, INC., priority 2006, dated 2020).
Where two headings read alike, the source gives them in different places. No end group written: not given here.

Experiments:
[1] = test system: T lymphocytes and CEM cells; conditions: cited from earlier work
[2] = biological target: CXC chemokine receptor 4 (CXCR4) (Homo sapiens, UniProt P61073); conditions: cited from earlier work
CXC chemokine receptor 4 (CXCR4), sequence (P61073 whole entry): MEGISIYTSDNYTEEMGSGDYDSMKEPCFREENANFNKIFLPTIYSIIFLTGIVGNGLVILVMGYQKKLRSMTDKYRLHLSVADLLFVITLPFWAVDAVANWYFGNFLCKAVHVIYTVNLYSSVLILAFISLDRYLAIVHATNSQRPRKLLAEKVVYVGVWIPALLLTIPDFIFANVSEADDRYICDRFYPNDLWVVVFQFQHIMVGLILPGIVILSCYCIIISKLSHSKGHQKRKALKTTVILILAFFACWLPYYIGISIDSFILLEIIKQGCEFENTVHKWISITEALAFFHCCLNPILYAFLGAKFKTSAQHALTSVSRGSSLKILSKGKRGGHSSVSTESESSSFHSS

[3] = test system: T lymphocytes and CEM cells; conditions: cited from earlier work; for induce chemotaxis: T lymphocytes and CEM cells; for fold less potent than SDF-1: chemoattractant activity, relative to native SDF-1; for EC50: read-out: half-maximal chemoattractant activity
MMP-2 [4] = biological target: T1, MMP-2 (Homo sapiens, UniProt P08253); test: MMP-2 cleavage, incubation product examined by SDS-PAGE; assay type: biochemical; conditions: for cleavage by MMP-2 (SDS-PAGE): 2 nmole peptide incubated with MMP-2 for 1 h at RT
T1 sequence (P08253 110-660): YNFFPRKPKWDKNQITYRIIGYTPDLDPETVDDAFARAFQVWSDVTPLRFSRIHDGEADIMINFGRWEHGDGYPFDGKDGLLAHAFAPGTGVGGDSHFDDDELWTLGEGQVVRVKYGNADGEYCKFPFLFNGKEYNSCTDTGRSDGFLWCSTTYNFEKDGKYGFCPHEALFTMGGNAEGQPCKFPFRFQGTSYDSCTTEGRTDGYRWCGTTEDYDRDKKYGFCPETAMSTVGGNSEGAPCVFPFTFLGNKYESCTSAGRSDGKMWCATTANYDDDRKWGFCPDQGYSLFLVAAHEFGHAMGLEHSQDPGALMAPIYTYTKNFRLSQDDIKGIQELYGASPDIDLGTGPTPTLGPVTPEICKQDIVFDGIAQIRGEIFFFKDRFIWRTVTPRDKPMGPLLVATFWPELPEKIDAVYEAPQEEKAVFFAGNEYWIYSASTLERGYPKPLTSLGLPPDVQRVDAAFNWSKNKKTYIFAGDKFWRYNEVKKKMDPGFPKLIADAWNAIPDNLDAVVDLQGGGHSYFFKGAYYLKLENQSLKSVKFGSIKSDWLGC
Protocol: The susceptibility of the peptides to cleavage by MMP-2 was determined by incubating the mutants with the enzyme for one hour and then examining the incubation product by SDS-PAGE.
Cleavage experiments of the peptides with MMP-2 were performed: 2 nmole of SDF-1 17AA, SDF-1(S4V) 17AA, and SDF-1(L5P) 17AA were incubated with MMP-2 for 1 h at RT. Proteins were run on an SDS-PAGE showing cleavage of SDF-1 17AA, but not of SDF-1(S4V) 17AA or SDF-1(L5P) 17AA. Thus, these truncated proteins may be useful therapeutically, as they are still bioactive and also MMP-2 resistant.

Jurkat T cells = test: Jurkat T cell migration assay; assay type: cell-based; conditions: for activity on T-cell migration: compared to native SDF-1; for activity in promoting T cell migration: concentration of 100 nM, versus unmutated SDF-1
Protocol: Cells from a 4-L growth were lysed in 300 ml lysis buffer (6M Guanidine, 20 mM phosphate (pH 7.8), 500 mM NaCl) and homogenized. Debris is collected by centrifugation at 3000 g. The first purification step consisted of capture of the poly-histidine tag present in the SUMO-SDF-1α fusion protein with Nickel-NTA. Nickel-NTA resin was washed with wash buffer (8M Urea, 500 mM NaCl, 20 mM phosphate (pH 6.2)) and the bound protein was eluted at pH 4. Further purification and oxidative refolding were performed on a Cation Exchange HPLC column. The sample was adjusted to binding buffer (8M Urea, 30 mM 2-mercaptoethanol, 1 mM EDTA, 50 mM Tris pH8) and loaded on the HPLC column. Refolding of Sumo-SDF-1 was performed on the column with a 2 h run of refolding buffer (50 mM Tris pH8, 75 mM NaCl, 0.1 mM reduced Glutathione and 0.1 mM oxidized Glutathione). Sumo-SDF-1 was eluted with a step gradient (0.5 to 1M NaCl) and concentrated. The SUMO-SDF-1 fusion protein was cleaved by Sumo Protease 1 (IU/50 μg protein) in 50 mM Tris pH 8.0, 500 mM NaCl. The sample was adjusted to 0.1% trifluoroacetic acid (TFA) and loaded on a C18 Reversed Phase HPLC column for the final purification step. The column was subjected to a linear gradient from 30 to 40% acetonitrile in 0.1% TFA. The fractions containing SDF-1 were lyophilized and resuspended. Activity of purified SDF-1 was tested by migration of Jurkat T-lymphocyte cell line.
The mutated forms of SDF-1 were examined in an assay of migration of Jurkat T cells at a concentration of 100 nM.
Migration experiments were performed with the Jurkat T-lymphocyte cell line. […] Therefore, if 500 times higher concentrations were used compared to full-length protein, the same migratory response of T-lymphocytes should be observed. […] This is a similar shift to that seen between native SDF-1 and SDF-1(S4V).

MMP-2 [5] = biological target: T1, MMP-2; test: Jurkat T-cell migration assay after MMP-2 incubation; assay type: cell-based

1-8: peptide of N-terminal residues 1-8 of SDF-1 (KPVSLSYR; UniProt P48061 22-29, looked up, fragment)
induce intracellular calcium [1]: induce
bind to CXCR4 [2]: bind
induce chemotaxis [3]: induce

1-9 dimer: dimer of the SDF-1 1-9 peptide (KPVSLSYRC; also: dimer; UniProt P48061 22-30, looked up, fragment)
induce intracellular calcium [1]: induce
bind to CXCR4 [2]: bind
induce chemotaxis [3]: induce
fold less potent than SDF-1 [3]: 100 fold
EC50 [3]: 500 nM

1-9: peptide of N-terminal residues 1-9 of SDF-1 (KPVSLSYRC; UniProt P48061 22-30, looked up, fragment)
induce intracellular calcium [1]: induce
bind to CXCR4 [2]: bind
induce chemotaxis [3]: induce
fold less potent than SDF-1 [3]: 3600 fold

1-17: peptide of N-terminal residues 1-17 of SDF-1 (KPVSLSYRCPCRFFESH; UniProt P48061 22-38, looked up, fragment)
induce intracellular calcium [1]: induce
bind to CXCR4 [2]: bind
induce chemotaxis [3]: induce
fold less potent than SDF-1 [3]: 400 fold

SCR: GIVGPL (SEQ ID NO:58), linker sequence, a scrambled version of the MMP-2 cleavage site MCS (listed as Homo sapiens)
MMP-2 cleavage of linker sequence (MMP-2 [4]; rate compared with MCS): undergo MMP-2 cleavage, although at a slower rate than MCS

SDF-1 17AA: KPVSLSYRCPCRFFESH (SEQ ID 64), first 17 amino acids of native SDF-1 (listed as Homo sapiens)
times less potent than native SDF-1 (Jurkat T cells; Jurkat T-lymphocyte migration): 500 times
cleavage by MMP-2 (SDS-PAGE) (MMP-2 [4]): cleavage

SDF-1(L5E): SDF-1 mutant, leucine at position 5 changed to glutamic acid
activity on T-cell migration (Jurkat T cells): minimal activity
activity in promoting T cell migration (Jurkat T cells): greatly reduced

SDF-1(L5P) 17AA: KPVSPSYRCPCRFFESH (SEQ ID 66) (listed as Homo sapiens)
times less potent than SDF-1 17AA without mutation (Jurkat T cells; Jurkat T-lymphocyte migration): three times less potent
cleavage by MMP-2 (SDS-PAGE) (MMP-2 [4]): not

SDF-1(L5P): SDF-1 mutant, leucine at position 5 changed to proline, SEQ ID NO:56
activity on T-cell migration (Jurkat T cells): bioactivity comparable to native SDF-1
activity in promoting T cell migration (Jurkat T cells): retained most of the activity of unmutated SDF-1

SDF-1(L5W): SDF-1 mutant, leucine at position 5 changed to tryptophan
activity on T-cell migration (Jurkat T cells): minimal activity
activity in promoting T cell migration (Jurkat T cells): greatly reduced

SDF-1(S4V) 17AA: KPVVLSYRCPCRFFESH (SEQ ID 65) (listed as Homo sapiens)
times less potent than SDF-1 17AA without mutation (Jurkat T cells; Jurkat T-lymphocyte migration): three times less potent
cleavage by MMP-2 (SDS-PAGE) (MMP-2 [4]): not

SDF-1(S4V): SDF-1 mutant, serine at position 4 changed to valine, SEQ ID NO:54
activity on T-cell migration (Jurkat T cells): bioactivity comparable to native SDF-1
activity in promoting T cell migration (Jurkat T cells): retained most of the activity of unmutated SDF-1
chemoattractant activity after MMP-2 incubation (MMP-2 [5]): not
chemoattractant activity after MMP-2 incubation (MMP-2 [5]; listed as S4V variant of SDF-1): resistant to activation by MMP-2

stromal cell derived factor-1 [SDF-1]
chemoattractant activity after MMP-2 incubation (MMP-2 [5]): reduce the chemoattractant activity
cleavage by MMP-2 (positional shift on SDS-PAGE) (MMP-2 [4]; incubated with the enzyme for one hour): positional shift indicative of cleavage
EC50 [3]: 5 nM
